We go through 13 compounds from patent US7226923B2, “Phthalazinone derivatives” (Hoffman-La Roche Inc., priority 2004, dated 2007).

Molecules are shown by their SMILES.

The target of assay [1] is T1, Aurora A (Homo sapiens, UniProt O14965).
T1 construct: C-terminally Histidine4 (His4)-tagged Aurora A full-length protein
T1 sequence (O14965 1-403): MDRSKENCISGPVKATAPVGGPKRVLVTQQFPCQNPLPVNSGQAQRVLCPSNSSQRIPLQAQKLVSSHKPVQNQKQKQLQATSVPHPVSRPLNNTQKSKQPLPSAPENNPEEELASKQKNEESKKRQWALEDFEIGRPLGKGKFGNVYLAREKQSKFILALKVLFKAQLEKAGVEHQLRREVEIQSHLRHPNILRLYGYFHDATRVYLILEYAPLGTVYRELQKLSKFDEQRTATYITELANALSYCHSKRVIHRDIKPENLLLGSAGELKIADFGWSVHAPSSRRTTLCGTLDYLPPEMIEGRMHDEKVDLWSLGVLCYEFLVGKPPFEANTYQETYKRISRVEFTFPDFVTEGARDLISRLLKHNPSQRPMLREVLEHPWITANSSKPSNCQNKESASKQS
The assay is described as follows: IC50 determination for inhibitors of Aurora A (96 MTP-ELISA). Format: biochemical. The note with it: His4-tagged full-length Aurora A 250 ng/ml, PKB-GSK2 200 nM, ATP 4 μM, 90 min at room temperature, read-out: IC50 Aurora A kinase inhibition. For orientation: In an ELISA, binding on a coated surface is turned into a signal by an enzyme label.

For assay [2], the system named is HCT 116 cells. In words: CellTiter-Glo assay in HCT 116 cells. Format: cell-based, human. The note with it: Homo sapiens, HCT-116, 120 h, 5 days incubation, 30 μM to 0.0015 μM. From the text:
CellTiter-Glo™ Assay in HCT 116 Cells
The CellTiter-Glo™ Luminescent Cell Viability Assay (Promega) is a homogeneous method of determining the number of viable cells in culture based on quantitation of the ATP present, which signals the presence of metabolically active cells.
HCT 116 cells (human colon carcinoma, ATCC-No. CCl-247) were cultivated in RPMI 1640 medium with GlutaMAX™ I (Invitrogen, Cat-No. 61870-010), 2.5% Fetal Calf Serum (FCS, Sigma Cat-No. F4135 (FBS)); 100 Units/ml penicillin/100 μg/ml streptomycin (=Pen/Strep from Invitrogen Cat. No. 15140). For the assay the cells were seeded in 384 well plates, 1000 cells per well, in the same medium. The next day the test compounds were added in various concentrations ranging from 30 μM to 0.0015 μM (10 concentrations, 1:3 diluted). After 5 days the CellTiter-Glo™ assay was done according to the instructions of the manufacturer (CellTiter-Glo™ Luminescent Cell Viability Assay, from Promega). In brief: the cell-plate was equilibrated to room temperature for approximately 30 minutes and than the CellTiter-Glo™ reagent was added. The contents were carefully mixed for 15 minutes to induce cell lysis. After 45 minutes the luminescent signal was measured in Victor 2, (scanning multiwell spectrophotometer, Wallac).
1st. Day: • Medium: RPMI 1640 with GlutaMAX™ I (Invitrogen, Cat-Nr. 61870), 5% FCS (Sigma Cat.-No. F4135), Pen/Strep (Invitrogen, Cat No. 15140). • HCT116 (ATCC-No. CCl-247): 1000 cells in 60 μl per well of 384 well plate (Greiner 781098, μClear-plate white) • After seeding incubate plates 24 h at 37° C., 5% CO2
2nd. Day: Induction (Treatment with Compounds, 10 Concentrations):
In order to achieve a final concentration of 30 μM as highest concentration 3.5 μl of 10 mM compound stock solution were added directly to 163 μl media. Then step e) of the dilution procedure described below, was followed.
(In general: ATP-based viability assays read luminescence as a measure of living cells.)

`Cc1cc(Nc2nn(Cc3ccc(N)cc3)c(=O)c3ccccc23)n[nH]1` [Example C-1, 2-(4-Aminobenzyl)-4-(5-methyl-1H-pyrazol-3-ylamino)-2H-phthalazin-1-one]: the IC50 in assay [1] was 1 to 100 nM; in assay [2] it was 100 to 10000 nM.

Regarding `Cc1cc(Nc2nn(Cc3ccccn3)c(=O)c3ccccc23)[nH]n1` [Example A-22, 4-(5-Methyl-2H-pyrazol-3-ylamino)-2-pyridin-2-ylmethyl-2H-phthalazin-1-one], the IC50 in assay [1] is 1 to 100 nM; in assay [2] it was 100 to 10000 nM.

Regarding `Cc1cc(Nc2nn(CC(=O)c3ccc4c(c3)OCO4)c(=O)c3ccccc23)n[nH]1` [Example E-7, 2-(2-Benzo[1,3]dioxol-5-yl-2-oxo-ethyl)-4-(5-methyl-1H-pyrazol-3-ylamino)-2H-phthalazin-1-one], the IC50 in assay [1] is 100 to 1000 nM; in assay [2], 100 to 10000 nM.

With `CC(=O)Nc1ccc(Cn2nc(Nc3cc(C)[nH]n3)c3ccccc3c2=O)cc1` [Example D-1, N-{4-[4-(5-Methyl-1H-pyrazol-3-ylamino)-1-oxo-1H-phthalazin-2-ylmethyl]-phenyl}-acetamide], the IC50 in assay [1] is 1 to 100 nM; in assay [2], 4190 nM.

Take `Cc1cc(Nc2nn(C(C)C)c(=O)c3cc(OCCN4CCOCC4)ccc23)n[nH]1` [Example G-5, 2-Isopropyl-4-(5-methyl-1H-pyrazol-3-ylamino)-7-(2-morpholin-4-yl-ethoxy)-2H-phthalazin-1-one]: the IC50 in assay [1] is 7 nM; in assay [2], 100 to 10000 nM.

`Cc1cc(Nc2nn(C(C)C)c(=O)c3cc(N(C)C(=O)OC(C)(C)C)ccc23)[nH]n1` [Example I-14, [3-Isopropyl-1-(5-methyl-2H-pyrazol-3-ylamino)-4-oxo-3,4-dihydro-phthalazin-6-yl]-methyl-carbamic acid tert-butyl ester]: the IC50 in assay [1] was in the range of 1 to 100 nM; in assay [2] it was 100 to 10000 nM.

In the case of `Cc1cc(Nc2nn(C(C)C)c(=O)c3cc(OC(F)F)ccc23)n[nH]1` [Example G-7, 7-Difluoromethoxy-2-isopropyl-4-(5-methyl-1H-pyrazol-3-ylamino)-2H-phthalazin-1-one], the IC50 in assay [1] lay in the range of 1 to 100 nM; in assay [2], 100 to 10000 nM.

As to `Cc1cc(Nc2nn(-c3ccc(C(C)(C)C)cc3)c(=O)c3ccccc23)n[nH]1` [Example A-8, 2-(4-tert-Butyl-phenyl)-4-(5-methyl-1H-pyrazol-3-ylamino)-2H-phthalazin-1-one], the IC50 is 100 to 1000 nM in assay [1] and 100 to 10000 nM in assay [2].

With `CSc1ccc2c(Nc3cc(C)[nH]n3)nn(C(C)C)c(=O)c2c1` [Example H-1, 2-Isopropyl-4-(5-methyl-1H-pyrazol-3-ylamino)-7-methylsulfanyl-2H-phthalazin-1-one], the results for the half-inhibitory concentration (IC50) in assay [1] and in assay [2] were 1 to 100 nM and 100 to 10000 nM, respectively.

In the case of `Cc1cc(Nc2nn(C(C)C)c(=O)c3cc(N(C)C(=O)NC(C)C)ccc23)n[nH]1` [Example I-6, 3-Isopropyl-1-[3-isopropyl-1-(5-methyl-1H-pyrazol-3-ylamino)-4-oxo-3,4-dihydro-phthalazin-6-yl]-1-methyl-urea], the IC50 lay in the range of 1 to 100 nM in assay [1] and 100 to 10000 nM in assay [2].

As for `Cc1cccc(-n2nc(Nc3cc(C)[nH]n3)c3ccccc3c2=O)c1` [Example B-2, 4-(5-Methyl-1H-pyrazol-3-ylamino)-2-m-tolyl-2H-phthalazin-1-one], the IC50 in assay [1] is 1 to 100 nM; in assay [2], 780 nM.

As for `Cc1cc(Nc2nn(C(C)C)c(=O)c3cc(OCc4ccccn4)ccc23)n[nH]1` [Example G-2, 2-Isopropyl-4-(5-methyl-1H-pyrazol-3-ylamino)-7-(pyridin-2-ylmethoxy)-2H-phthalazin-1-one], the 50% inhibitory concentration (IC50) lay in the range of 1 to 100 nM in assay [1] and 100 to 10000 nM in assay [2].

As to `Cc1cc(Nc2nn(C(C)C)c(=O)c3ccc(CO)cc23)n[nH]1` [Example M-10, 6-Hydroxymethyl-2-isopropyl-4-(5-methyl-1H-pyrazol-3-ylamino)-2H-phthalazin-1-one], the figures for the IC50 in assay [1] and in assay [2] were 100 to 1000 nM and 100 to 10000 nM, respectively.

For orientation: IC50 means the midpoint of a concentration-inhibition curve.
